Results: patent publication US20250243227A1, “IDURONIDASE STABILIZERS AND USES THEREOF” (Academia Sinica, priority 2022, published 2025)

Tests used:
[1] = target: T1, rh-α-IDUA in GM01391 fibroblasts (Homo sapiens (Human), UniProt P35475); assay: Cell-based rh-α-IDUA stabilization: intracellular IDUA activity in GM01391 fibroblasts; settings: for change of IDUA activity on co-treatment versus rh-α-IDUA alone / enhancement of IDUA activity versus rh-α-IDUA alone: rh-α-IDUA 0.1 nM + compound 100 μM (100 aM/100 M [sic] in the source)
Experimental: (§1) FIG. 1. The cell-based rh-α-IDUA stabilization study of the compounds of Example 1/rh-α-IDUA in GM01391 fibroblasts. (A) Preliminary cell-based screening of compounds of Example 1 by the co-treatment of rh-α-IDUA (0.1 nM) with 12 or 27b ([…]); (B) A dose-dependent experiment for 12, 27a, or 27b with 1 nM of rh-α-IDUA; (C) Co-treatment of 12 and rh-α-IDUA (1 or 0.1 nM) on IDUA activity; and (D) 12/rh-α-IDUA co-treatment on HS reduction in cells. Each bar represents the mean±SD of three determinations. *P<0.05; **P<0.01; ***P<0.001 compared to rh-α-IDUA alone, as determined by one-way ANOVA with Dunnett post-hoc analysis.
To this purpose, GM01391 fibroblasts were treated with a combination of rh-α-IDUA (0.1 nM) and compounds 12, and 27a-c ([…]); or with rh-α-IDUA for 1 day, followed by a 1-day wash-out. To measure the intracellular IDUA activity, the corresponding cells were harvested and lysed before the incubation with the fluorogenic substrate. Results are illustrated in FIG. 1.

[2] = target: recombinant human α-IDUA (rh-α-IDUA, Aldurazyme®) (Homo sapiens (Human), UniProt P35475); assay: IDUA inhibition assay (fluorogenic substrate 4MU-IdoA); type: biochemical; settings: for IC50: apparent IC50 against rh-α-IDUA, 4-MU-IdoA substrate, pH 3.5
Experimental: Compounds were mixed with recombinant human α-IDUA (rh-α-IDUA, Aldurazyme®, 1.2 nM as the final concentration) and the fluorogenic substrate, […] (4MU-IdoA; Cayman), at a final concentration of 100 μM in pH 3.5 buffer (50 mM NaOAc and 150 mM NaCl), then incubated in a 384-well microplate at 37° C. for 30 min. Stop solution (500 mM Na2CO3, pH 10.8) was added and fluorescence was read on a CLARIOstar® microplate reader (BMG LABTECH) at 355 nm excitation and 460 nm emission. Raw fluorescence counts were background subtracted, as defined by counts from substrate solution only. Inhibitory screening was performed and the active compounds were selected and further tested at lower concentration to determine their IC50 values and Ki values.
The compounds of Example 1 were evaluated on their inhibitory potential against rh-α-IDUA, and their apparent IC50 values were determined by using the fluorogenic substrates 4-methylumbelliferyl-α-iduronide (4-MU-IdoA) and results are shown in Table 1.

[3] = test system: heparan sulfate (HS) in GM02846 fibroblasts; assay: Cell-based HS analysis (LC-MS/MS of HS disaccharides) in GM02846 fibroblasts; set-up: species or system human; settings: combination with rh-α-IDUA
Text: (§2) FIG. 2. The cell-based rh-α-IDUA stabilization study of 12/rh-α-IDUA in GM02846 fibroblasts. (A) IDUA activity, and (B) the reduction of HS; Each bar represents the mean±SD of three determinations. *P<0.05; **P<0.01; ***P<0.001 compared to rh-α-IDUA alone, as determined by one-way ANOVA with Dunnett post-hoc analysis.
(§3) Generally, accumulation of GAGs could be observed in MPS patients due to the dysfunction of any lysosomal enzymes involved in the degradation of GAGs including IDUA associated with MPSI, which means the enhanced efficacy of protein drugs by the co-treatment with protein stabilizers could be evaluated more directly by the improved reduction of GAGs than the increased activity of MPS-related lysosomal enzymes. As a result, a robust method for quantitative detection of HS, one of the types of GAGs excessively stored in MPS I patients, was established by us for the evaluation of potential therapeutic effect of compound 12 in MPSI.
(§4) HS of the in situ treated fibroblasts were extracted and chemically cleaved to generate HS disaccharides as the released biomarker, which could be quantitatively measured via LC-MS/MS with a synthesized novel disaccharide by us as the internal standard. With this established method for cell-based HS analysis, the qualified CIdoA analogue 12 was further evaluated.

[4] = test system: heparan sulfate (HS) in GM01391 fibroblasts; assay: Cell-based HS analysis (LC-MS/MS of HS disaccharides) in GM01391 fibroblasts; set-up: species or system human; settings: co-treatment with rh-α-IDUA
Experimental: as §1
as §3, with “MPSI. […]” for “MPSI.”

[5] = target: T1, rh-α-IDUA in GM01391 fibroblasts; assay: Cell-based rh-α-IDUA stabilization: intracellular IDUA activity in GM01391 fibroblasts; settings: co-treatment with rh-α-IDUA; 1-day treatment followed by 8-day wash-out; data not shown
[6] = target: rh-α-IDUA in GM02846 fibroblasts (Homo sapiens (Human), UniProt P35475); assay: Cell-based rh-α-IDUA stabilization: IDUA activity in GM02846 fibroblasts; settings: co-treatment with rh-α-IDUA
Text: as §2, §4

[7] = rh-α-IDUA 1 nM + compound 500 μM

recombinant human α-IDUA (rh-α-IDUA, Aldurazyme®), sequence (P35475 26-653): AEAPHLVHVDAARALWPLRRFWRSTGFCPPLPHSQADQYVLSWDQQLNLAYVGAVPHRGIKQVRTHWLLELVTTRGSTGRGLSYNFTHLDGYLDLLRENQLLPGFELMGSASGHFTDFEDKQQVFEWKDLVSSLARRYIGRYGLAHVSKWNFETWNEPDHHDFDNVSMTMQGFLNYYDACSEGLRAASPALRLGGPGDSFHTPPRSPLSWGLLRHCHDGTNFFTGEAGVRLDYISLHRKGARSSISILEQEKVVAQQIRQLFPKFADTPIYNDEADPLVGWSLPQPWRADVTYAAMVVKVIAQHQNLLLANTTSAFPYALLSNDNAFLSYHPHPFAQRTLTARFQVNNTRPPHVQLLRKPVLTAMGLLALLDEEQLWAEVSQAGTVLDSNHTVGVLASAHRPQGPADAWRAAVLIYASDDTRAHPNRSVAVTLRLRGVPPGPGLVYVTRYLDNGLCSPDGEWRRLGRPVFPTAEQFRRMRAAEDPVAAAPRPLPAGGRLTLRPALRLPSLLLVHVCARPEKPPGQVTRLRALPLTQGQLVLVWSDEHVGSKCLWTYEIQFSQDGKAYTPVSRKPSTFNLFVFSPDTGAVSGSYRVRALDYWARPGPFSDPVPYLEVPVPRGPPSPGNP
T1 sequence (P35475 26-653): as above
rh-α-IDUA in GM02846 fibroblasts, sequence (P35475 26-653): as above

O=C(Cc1ccc(OP(=O)(O)O)cc1)NCC[C@@H]1O[C@@H](C(=O)O)[C@@H](O)[C@H](O)[C@H]1O [Compound 27a]
change of IDUA activity on co-treatment versus rh-α-IDUA alone ([1]; 1 day, 1-day wash-out): barely improved | IDUA activity on co-treatment at 500 μM [1, 7]: suppressed | IC50 [2]: 5.4 ± 0.5 µM

NCC[C@@H]1N[C@@H](C(=O)O)[C@@H](O)[C@H](O)[C@H]1O [Compound 23]
IC50 (μM), NI = no inhibition at 250 μM ([2]; 250 μM compound, rh-α-IDUA): NI^a (NI refers to less than 10% inhibition at 250 μM.)

NCC[C@@H]1O[C@@H](C(=O)O)[C@@H](O)[C@H](O)[C@H]1O [Compound 12]
reduction of HS versus rh-α-IDUA alone [3]: significant reduction of HS | reduction of accumulated HS versus rh-α-IDUA alone [4]: statistically significantly improved reduction | time course of enhancement of IDUA activity [5]: could be maintained | enhancement of IDUA activity versus rh-α-IDUA alone ([1]; 1 day, 1-day wash-out): 1.4 fold | IDUA activity with combined treatment versus rh-α-IDUA alone [1, 7]: three | IDUA activity, dose-dependence of co-treatment versus rh-α-IDUA alone ([1]; rh-α-IDUA 1 or 0.1 nM): enhanced by the 12/rh-α-IDUA co-treatment in a dose-dependent manner | rh-α-IDUA activity on co-treatment [6]: dose-dependently enhanced | Ki ([2]; against rh-α-IDUA): 4 µM | IC50 [2]: 6.7 µM

O=C(Cc1cccc(OP(=O)(O)O)c1)NCC[C@@H]1O[C@@H](C(=O)O)[C@@H](O)[C@H](O)[C@H]1O [Compound 27b]
enhancement of IDUA activity versus rh-α-IDUA alone ([1]; 1 day, 1-day wash-out): 1.6 fold | enhancement of IDUA activity at 500 μM [1, 7]: 1.7 fold | IC50 [2]: 4 ± 0.5 µM

O=C(Cc1ccccc1OP(=O)(O)O)NCC[C@@H]1O[C@@H](C(=O)O)[C@@H](O)[C@H](O)[C@H]1O [Compound 27c]
change of IDUA activity on co-treatment versus rh-α-IDUA alone ([1]; 1 day, 1-day wash-out): moderate reduction of IDUA activity | IC50 [2]: 1 µM

B1: rh-α-IDUA: recombinant human α-iduronidase, enzyme replacement protein (Aldurazyme®) (protein, UniProt P35475 28-653, looked up)
Alpha-L-iduronidase: APHLVHVDAARALWPLRRFWRSTGFCPPLPHSQADQYVLSWDQQLNLAYVGAVPHRGIKQVRTHWLLELVTTRGSTGRGLSYNFTHLDGYLDLLRENQLLPGFELMGSASGHFTDFEDKQQVFEWKDLVSSLARRYIGRYGLAHVSKWNFETWNEPDHHDFDNVSMTMQGFLNYYDACSEGLRAASPALRLGGPGDSFHTPPRSPLSWGLLRHCHDGTNFFTGEAGVRLDYISLHRKGARSSISILEQEKVVAQQIRQLFPKFADTPIYNDEADPLVGWSLPQPWRADVTYAAMVVKVIAQHQNLLLANTTSAFPYALLSNDNAFLSYHPHPFAQRTLTARFQVNNTRPPHVQLLRKPVLTAMGLLALLDEEQLWAEVSQAGTVLDSNHTVGVLASAHRPQGPADAWRAAVLIYASDDTRAHPNRSVAVTLRLRGVPPGPGLVYVTRYLDNGLCSPDGEWRRLGRPVFPTAEQFRRMRAAEDPVAAAPRPLPAGGRLTLRPALRLPSLLLVHVCARPEKPPGQVTRLRALPLTQGQLVLVWSDEHVGSKCLWTYEIQFSQDGKAYTPVSRKPSTFNLFVFSPDTGAVSGSYRVRALDYWARPGPFSDPVPYLEVPVPRGPPSPGNP
IDUA activity after treatment with rh-α-IDUA alone ([1]; rh-α-IDUA 0.1 nM, 1 day, 1-day wash-out): dramatically increased
